These results are taken from patent US11299496B2, “Ligands for alpha-7 nicotinic acetylcholine receptors and methods of treating neurological and inflammatory conditions” (Northeastern University, priority 2014, dated 2022).

The assay deals with T1, human alpha-7 nAChR (Homo sapiens, UniProt P36544).
T1 construct: expressed in transfected cells; host or cells: Xenopus laevis oocytes (cRNA injection)
The experiment in a line: Two-electrode voltage clamp of alpha-7 nAChR expressed in Xenopus oocytes (net charge). The assay is classed as cell-based. The note with it: area under the curve of current vs. time; for Charge Alone: compound alone acting as an allosteric agonist; for Charge +C: compound together with choline or ACh, includes PAM and ago-PAM activity. The procedure:
The human alpha-7 nAChR receptor clone was obtained from Dr. Jon Lindstrom {University of Pennsylvania, Philadelphia, Pa.), aid the RIC-3 clone from Dr. Millet Treinin (Hebrew University, Jerusalem, Israel) for the purpose of co-injection with a7 to improve the level and speed of receptor expression (Halevi et al., 2003). After linearization and purification of cloned cDNA's, RNA, transcripts were prepared rising the appropriate mMessage mMachine kit tiom Ambion (Austin, Tex.).
Expression in X, laeivis Oocytes
Oocytes were obtained from mature (>9 cm) female Xenopus laeivis African frogs (Nasco, Ft. Atkinson, Wis.). Frogs were anesthetized in 0.7 g/L solution of ethyl 3-aminobenzoate methanesulfonate buffered with sodium bicarbonate, and oocytes were surgically removed through an abdominal incision. Harvested oocytes were treated with 1.25 mg/ml collagenase (Worthington Biochemicals, Freehold, N.J.) in calcium-free Barth's solution (88 mM NaCl, 1 mM KCl, 2.38 mM NaHCO3, 0.82 mM MgSO4, 15 mM HEPES, 12 mg/L tetracycline, pH 7.6) for 3-4 hours to remove the follicular layer. Stage-5 oocytes were isolated and injected with 50 nL (5-20 ng) of human alpha-7 and RIC-3 cRNA. Suitable levels of receptor expression were typically achieved 2-6 days after injection of cRNA. For experiments involving the PAM 4BP-TQS/GAT-107, where standard levels of expression result in ion currents too large to be recorded in voltage clamp, experiments were typically conducted 1-3 days after RNA injection.
Two-electrode voltage clamp experiments were conducted using OpusXpress6000A (Molecular Devices, Sunnyvale, Calif.), an integrated system that provides automated impalement and voltage clamp of up to eight oocytes in parallel. Both the current and voltage electrodes were filled with 3 M KCl, and oocytes were clamped at a holding potential of −60 mV. Data were collected at 50 Hz and filtered at 20 Hz. The oocytes were bath-perfused with Ringer's solution (115 mM NaCl, 10 mM HEPES, 2.5 mM KCl, 1.8 mM CaCl2, pH 7.3), and agonist solutions were delivered from a 96-well drug plate using disposable tips. Flow rates were set at 2 mL/min, with each drug or control solution delivered in 12 s durations, followed˜by 181 s washouts with Ringer's unless noted otherwise.
Experimental Protocols and Data Analysis
Responses of human alpha-7 receptors to agonists were measured as both peek current and net charge measured over a 120 s period beginning with the compound application (Papke and Papke, 2002). […] In experiments involving positive allosteric modulators (PAMs), the fast desensitization of alpha-7 was eliminated, allowing peak currents to be used as a valid measurement of the receptor-mediated responses (Wang et al., 2012; Williams et al., 2011).
Oocytes received two control ACh applications prior to receiving any drug in order to establish a steady reference response, and they received one or more control ACh applications at the end of all experiments. For experiments involving drug incubation through bath applications, all responses were normalized to the average of two ACh control responses taken immediately prior to the switch of bath solution, for each cell individually. These normalization procedures had the effect of compensating for differing levels of receptor expression among the multiple oocytes used in each experiment. Each experiment was conducted on at least four oocytes, with mean values and standard errors (S.E.M.) calculated from their normalized responses. […]
On the technique in general: In two-electrode clamp one electrode senses voltage and the other passes current.

T1 sequence (P36544 23-502): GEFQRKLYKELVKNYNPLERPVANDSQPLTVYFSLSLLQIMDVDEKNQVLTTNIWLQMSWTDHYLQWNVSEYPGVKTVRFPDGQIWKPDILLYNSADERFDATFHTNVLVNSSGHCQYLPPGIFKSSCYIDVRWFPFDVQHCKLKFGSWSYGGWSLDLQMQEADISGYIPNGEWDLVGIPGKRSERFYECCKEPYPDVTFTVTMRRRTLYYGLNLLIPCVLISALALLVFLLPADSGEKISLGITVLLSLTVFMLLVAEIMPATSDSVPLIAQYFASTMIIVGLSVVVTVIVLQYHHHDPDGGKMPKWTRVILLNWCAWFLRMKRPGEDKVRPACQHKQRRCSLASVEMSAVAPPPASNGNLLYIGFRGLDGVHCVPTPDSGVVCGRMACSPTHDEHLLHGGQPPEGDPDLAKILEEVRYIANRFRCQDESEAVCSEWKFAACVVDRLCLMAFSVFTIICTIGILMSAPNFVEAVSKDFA

Regarding `NS(=O)(=O)c1ccc2c(c1)[C@H]1C=CC[C@H]1[C@@H](c1ccncc1)N2` (stereo in doubt) [Compound 2, 4-(pyridin-4-yl)-3a,4,5,9b-tetrahydro-3H-cyclopenta[c]quinoline-8-sulfonamide], the “Charge Alone” value is recorded as “Inactive” and the “Charge +C” value is “Inactive”.
Turning to `NS(=O)(=O)c1ccc2c(c1)[C@H]1OCC[C@H]1[C@@H](c1ccc(Br)cc1)N2` (stereo in doubt) [Compound 3, 4-(4-bromophenyl)-2,3,3a,4,5,9b-hexahydrofuro[3,2-c]quinoline-8-sulfonamide], the “Charge Alone” value is “Inactive” and the “Charge +C” value is “Inactive”.
Take `NS(=O)(=O)c1ccc([C@H]2Nc3ccc(Br)cc3[C@H]3C=CC[C@H]32)cc1` (stereo in doubt) [Compound 4, 4-(8-bromo-3a,4,5,9b-tetrahydro-3H-cyclopenta[c]quinolin-4-yl)benzenesulfonamide]: the “Charge Alone” value is 0 and the “Charge +C” value was 8.4.
The corresponding values for `NS(=O)(=O)c1ccc2c(c1)[C@H]1CCC[C@H]1[C@@H](c1ccc(Br)cc1)N2` (stereo in doubt) [Compound 5, 4-(4-bromophenyl)-2,3,3a,4,5,9b-hexahydro-1H-cyclopenta[c]quinoline-8-sulfonamide] are 23 and 93.
The corresponding values for `N#Cc1ccc([C@@H]2Nc3ccc(S(N)(=O)=O)cc3[C@H]3C=CC[C@H]32)cc1` (stereo in doubt) [Compound 6, 4-(4-cyanophenyl)-3a,4,5,9b-tetrahydro-3H-cyclopenta[c]quinoline-8-sulfonamide] are “Inactive” and “Inactive”.
With `NS(=O)(=O)c1ccc2c(c1)[C@H]1C=CC[C@H]1[C@@H](c1ccc([N+](=O)[O-])cc1)N2` (stereo in doubt) [Compound 8, 4-(4-nitrophenyl)-3a,4,5,9b-tetrahydro-3H-cyclopenta[c]quinoline-8-sulfonamide], the “Charge Alone” value amounted to 43 and the “Charge +C” value turned out to be 318.
The corresponding values for `NS(=O)(=O)c1ccc2c(c1)N[C@H](c1ccc(Br)cc1)[C@@H]1CC=C[C@H]21` (stereo in doubt) [Compound 10, 4-(4-bromophenyl)-3a,4,5,9b-tetrahydro-3H-cyclopenta[c]quinoline-7-sulfonamide] are “Inactive” and “Inactive”.
As for `NS(=O)(=O)c1cccc2c1N[C@H](c1ccc(Br)cc1)[C@@H]1CC=C[C@H]21` (stereo in doubt) [Compound 11, 4-(4-bromophenyl)-3a,4,5,9b-tetrahydro-3H-cyclopenta[c]quinoline-6-sulfonamide], the “Charge Alone” value was “Inactive” and the “Charge +C” value is “Inactive”.
Consider `NS(=O)(=O)c1ccc2c(c1)[C@H]1C=CC[C@H]1[C@@H](c1ccc(-c3ccccc3)cc1)N2` (stereo in doubt) [Compound 12, 4-([1,1′-biphenyl]-4-yl)-3a,4,5,9b-tetrahydro-3H-cyclopenta[c]quinoline-8-sulfonamide], for which the “Charge +C” value was determined as 76.
Consider `NS(=O)(=O)c1ccc2c(c1)[C@H]1C=CC[C@H]1[C@@H](Cc1ccccc1)N2` (stereo in doubt) [Compound 13, 4-benzyl-3a,4,5,9b-tetrahydro-3H-cyclopenta[c]quinoline-8-sulfonamide], for which the “Charge +C” value is 76.
Take `NS(=O)(=O)c1ccc2c(c1)[C@H]1C=CC[C@H]1[C@@H](c1ccoc1)N2` (stereo in doubt) [Compound 14, 4-(furan-3-yl)-3a,4,5,9b-tetrahydro-3H-cyclopenta[c]quinoline-8-sulfonamide]: the “Charge Alone” value is “Inactive” and the “Charge +C” value is “Inactive”.
`NS(=O)(=O)c1ccc2c(c1)[C@H]1C=CC[C@H]1[C@@H](c1ccsc1)N2` (stereo in doubt) [Compound 15, 4-(thiophen-3-yl)-3a,4,5,9b-tetrahydro-3H-cyclopenta[c]quinoline-8-sulfonamide]: the “Charge +C” value is 500.
Regarding `NS(=O)(=O)c1ccc2c(c1)[C@H]1C=CC[C@H]1[C@@H](c1cccs1)N2` (stereo in doubt) [Compound 17, 4-(thiophen-2-yl)-3a,4,5,9b-tetrahydro-3H-cyclopenta[c]quinoline-8-sulfonamide], the “Charge Alone” value was 0.031 and the “Charge +C” value is 21.096.
Turning to `Nc1ccc([C@H]2Nc3ccc(S(N)(=O)=O)cc3[C@H]3C=CC[C@H]32)cc1` (stereo in doubt) [Compound 18, 4-(4-aminophenyl)-3a,4,5,9b-tetrahydro-3H-cyclopenta[c]quinoline-8-sulfonamide], the “Charge +C” value came to 250.
`NS(=O)(=O)c1ccc2c(c1)[C@H]1C=CC[C@H]1[C@@H](C1CCCCC1)N2` (stereo in doubt) [Compound 19, 4-cyclohexyl-3a,4,5,9b-tetrahydro-3H-cyclopenta[c]quinoline-8-sulfonamide]: the “Charge Alone” value is “Inactive” and the “Charge +C” value is reported as “Inactive”.
Regarding `NS(=O)(=O)c1ccc2c(c1)[C@H]1C=CC[C@H]1[C@@H](c1ccccc1[N+](=O)[O-])N2` (stereo in doubt) [Compound 20, 4-(2-nitrophenyl)-3a,4,5,9b-tetrahydro-3H-cyclopenta[c]quinoline-8-sulfonamide], the “Charge +C” value is given as 52.
Turning to `CN(C)S(=O)(=O)c1ccc2c(c1)[C@H]1C=CC[C@H]1[C@@H](c1ccc(Br)cc1)N2` (stereo in doubt) [Compound 21, 4-(4-bromophenyl)-N,N-dimethyl-3a,4,5,9b-tetrahydro-3H-cyclopenta[c]quinoline-8-sulfonamide], the “Charge Alone” value is “Inactive” and the “Charge +C” value is “Inactive”.
Take `CNS(=O)(=O)c1ccc2c(c1)[C@H]1C=CC[C@H]1[C@@H](c1ccc(Br)cc1)N2` (stereo in doubt) [Compound 22, 4-(4-bromophenyl)-N-methyl-3a,4,5,9b-tetrahydro-3H-cyclopenta[c]quinoline-8-sulfonamide]: the “Charge Alone” value was “Inactive” and the “Charge +C” value was “Inactive”.
In the case of `O=S(=O)(c1ccc2c(c1)[C@H]1C=CC[C@H]1[C@@H](c1ccc(Br)cc1)N2)N1CCOCC1` (stereo in doubt) [Compound 23, 4-((4-(4-bromophenyl)-3a,4,5,9b-tetrahydro-3H-cyclopenta[c]quinolin-8-yl)sulfonyl)morpholine], the “Charge Alone” value was “Inactive” and the “Charge +C” value is listed as “Inactive”.
In the case of `[N-]=[N+]=Nc1ccc([C@H]2Nc3ccc(S(N)(=O)=O)cc3[C@H]3C=CC[C@H]32)cc1` (stereo in doubt) [Compound 25, 4-(4-azidophenyl)-3a,4,5,9b-tetrahydro-3H-cyclopenta[c]quinoline-8-sulfonamide], the “Charge Alone” value was 61.
`NS(=O)(=O)c1ccc2c(c1)[C@H]1C=CC[C@H]1[C@@H](c1ccc(N=C=S)cc1)N2` (stereo in doubt) [Compound 26, 4-(4-isothiocyanatophenyl)-3a,4,5,9b-tetrahydro-3H-cyclopenta[c]quinoline-8-sulfonamide]: the “Charge Alone” value was 0 and the “Charge +C” value was 22.
Turning to `NS(=O)(=O)c1ccc([C@H]2Nc3ccc(S(N)(=O)=O)cc3[C@H]3C=CC[C@H]32)cc1` (stereo in doubt) [Compound 28, 4-(4-sulfamoylphenyl)-3a,4,5,9b-tetrahydro-3H-cyclopenta[c]quinoline-8-sulfonamide], the “Charge +C” value came to 128.
Consider `NS(=O)(=O)c1ccc2c(c1)[C@H]1C=CC[C@H]1[C@@H](c1ccc(S(F)(F)(F)(F)F)cc1)N2` (stereo in doubt) [Compound 31, 4-(4-(pentafluoro-λ^6-sulfanyl)phenyl)-3a,4,5,9b-tetrahydro-3H-cyclopenta[c]quinoline-8-sulfonamide], for which the “Charge Alone” value is 89 and the “Charge +C” value stood at 206.
